What was measured:
PI3Kα = target: T1, PI3Kα (Homo sapiens, UniProt P42336); assay: In vitro PI3 kinase enzyme assay (PI3K ATP loss), alpha; assay type: biochemical; settings: average if run more than once; read-out: ATP Loss (PBKα) IC50 μM (Avg)
T1 construct: Full length p110 subunits of PI3K α, β and δ, N-terminally labeled with polyHis tag; polyHis (N); made in house; host or cells: Sf9 insect cells (baculovirus)
Description: (§1) Full length p110 subunits of PI3K α, β and δ, N-terminally labeled with polyHis tag, can be co-expressed with p85 with Baculo virus expression vectors in sf9 insect cells. P110/p85 heterodimers can be purified by sequential Ni-NTA, Q-HP, Superdex-100 chromatography. Purified α, β and δ isozymes can be stored at −20° C. in 20 mM Tris, pH 8, 0.2M NaCl, 50% glycerol, 5 mM DTT, 2 mM Na cholate. […] The γ isozyme can be purified by sequential Ni-NTA, Superdex-200, Q-HP chromatography. The γ isozyme can be stored frozen at −80° C. in NaH2PO4, pH 8, 0.2M NaCl, 1% ethylene glycol, 2 mM β-mercaptoethanol.
(§2) In Vitro PI3 Kinase Enzyme Assays (PI3K Atploss)
(§3) PI3K enzyme assays (alpha, beta, delta and gamma) can be performed in 25 μL with the above final concentrations of components in white polyproplyene plates. Phosphatidyl inositol phosphoacceptor, PtdIns(4,5)P2 (eg. P4508) can be obtained from Echelon Biosciences, Salt Lake City, Utah. […] Test compounds can be dissolved in DMSO and diluted with three-fold serial dilutions. The compound in DMSO (1 μL) may be added per test well, and the inhibition relative to reactions containing no compound, with and without enzyme can be determined After assay incubation at RT, the reaction can be stopped and residual ATP can be determined by addition of an equal volume of a commercial ATP bioluminescence kit (Perkin Elmer EasyLite, Perkin Elmer, Waltham, Mass.) according to the manufacturer's instructions, and detected using an Analyst GT luminometer.

PI3Kβ = target: T2, PI3Kβ (Homo sapiens, UniProt P42338); assay: In vitro PI3 kinase enzyme assay (PI3K ATP loss), beta; assay type: biochemical; settings: average if run more than once
T2 construct: Full length p110 subunits of PI3K α, β and δ, N-terminally labeled with polyHis tag; polyHis (N); made in house; host or cells: Sf9 insect cells (baculovirus)
Description: as §1, §2, §3

[1] = test system: phosphorylation of Akt at Ser473; assay: Cell-based phospho-Akt Ser473 assay (HCT116 cell); settings: HCT 116 human colon carcinoma cells, IGF-1 stimulated; average
From the text: Cell-Based Phospho-Akt Ser473 Assay (HCT116 Cell)
This assay determines the ability of a compound to inhibit the phosphorylation of […] in Akt using a MSD based sandwich immunoassay (Meso Scale Detection, Meso Scale Discovery (MSD), Gaithersburg, Md.). HCT 116 human colon carcinoma cell lines can be grown in McCoy's 5A growth medium (GIBCO, Carlsbad, Calif.) containing 10% FBS (GIBCO, Carlsbad, Calif.) and X1 Penicillin-streptomycin-glutamine (GIBCO, Carlsbad, Calif.). Prior to the assay, cells can be detached from the culture flask with trypsin, and re-suspended in complete media to give a final concentration of 1.6×10^5 cells per mL. Aliquots (100 μl) of the HCT116 cell suspension can be seeded into each well of a 96 well tissue culture plate to give a final density of 16,000 cells per well. Cells can then be incubated overnight at 37° C.
The following day the cells can be treated with serially diluted test compounds and incubated for 2 hours at 37° C. The culture media on the HCT 116 cells can be replaced with 189 μL McCoys media, supplemented with 0.1% BSA (ICN Biomedicals, Inc., Costa Mesa, Calif.). Compounds can be prepared as either 10 mM or 0.5 mM stock solutions in DMSO, and serially diluted 3 fold in a 10-point dose-response curve to give final concentrations that are 200-fold greater than the desired final test concentration. Aliquots (1 μL) of serially-diluted compounds can be transferred to 96 well tissue culture plates containing the HCT 116 cells. […] As a maximum response control, wells can contain 0.5% DMSO in place of compound. The plates can be mixed at 700 rpm for 2 min to ensure even distribution of the test compound and incubated for 2 hours at 37° C. Cells can then be stimulated with insulin-like growth factor 1 (Sigma, St Louis, Mo.) at final concentration of 100 ng/ml for 15 minutes at 37° C. The media can then be removed and the cells treated with 80 μL cell-lysis buffer (MSD) containing a cocktail of protease and phosphatase inhibitors for one hour at 4° C.
25 μL Cell lysate can then be transferred to pre-blocked MSD assay plates pre-coated with a capture antibody specific for Akt, and the plates can be incubated for 2 hours at room temperature. The cell lysates can then be removed and plates can then be washed four times with 200 μl per well of Tris wash buffer (500 mM Tris, PH 7.5, 1.5 M NaCl, 0.2% Tween-20). Subsequently cells can be incubated for 1 hour at room temperature with a 25 μL solution containing the detection antibody, anti-phospho Akt (Ser 473) labeled with an electrochemiluminescent compound (Meso Scale Discovery SULPHO-TAG™ label, MSD, Gaithersburg, Md.). The detection antibody can be removed and plates can then be washed four times with 200 μL per well of Tris wash buffer. An aliquot of 150 μL of diluted MSD read buffer can then be applied to each well, and the electrochemiluminescent signal can be measured using a MSD SECTOR™ plate reader (Meso Scale Discovery, Gaithersburg, Md.). This instrument measures the intensity of emitted light to determine a quantitative measure of phosphorylated Akt in each well. The dose-response data obtained with each compound can be analyzed and the IC50 inhibition of Akt phosphorylation at Ser473 can be calculated.
Activity data for the compounds tested in the PI3K cell based Akt assay is provided in Table 1 under the column heading HCT116 Cell.

T2 sequence (P42338 whole entry): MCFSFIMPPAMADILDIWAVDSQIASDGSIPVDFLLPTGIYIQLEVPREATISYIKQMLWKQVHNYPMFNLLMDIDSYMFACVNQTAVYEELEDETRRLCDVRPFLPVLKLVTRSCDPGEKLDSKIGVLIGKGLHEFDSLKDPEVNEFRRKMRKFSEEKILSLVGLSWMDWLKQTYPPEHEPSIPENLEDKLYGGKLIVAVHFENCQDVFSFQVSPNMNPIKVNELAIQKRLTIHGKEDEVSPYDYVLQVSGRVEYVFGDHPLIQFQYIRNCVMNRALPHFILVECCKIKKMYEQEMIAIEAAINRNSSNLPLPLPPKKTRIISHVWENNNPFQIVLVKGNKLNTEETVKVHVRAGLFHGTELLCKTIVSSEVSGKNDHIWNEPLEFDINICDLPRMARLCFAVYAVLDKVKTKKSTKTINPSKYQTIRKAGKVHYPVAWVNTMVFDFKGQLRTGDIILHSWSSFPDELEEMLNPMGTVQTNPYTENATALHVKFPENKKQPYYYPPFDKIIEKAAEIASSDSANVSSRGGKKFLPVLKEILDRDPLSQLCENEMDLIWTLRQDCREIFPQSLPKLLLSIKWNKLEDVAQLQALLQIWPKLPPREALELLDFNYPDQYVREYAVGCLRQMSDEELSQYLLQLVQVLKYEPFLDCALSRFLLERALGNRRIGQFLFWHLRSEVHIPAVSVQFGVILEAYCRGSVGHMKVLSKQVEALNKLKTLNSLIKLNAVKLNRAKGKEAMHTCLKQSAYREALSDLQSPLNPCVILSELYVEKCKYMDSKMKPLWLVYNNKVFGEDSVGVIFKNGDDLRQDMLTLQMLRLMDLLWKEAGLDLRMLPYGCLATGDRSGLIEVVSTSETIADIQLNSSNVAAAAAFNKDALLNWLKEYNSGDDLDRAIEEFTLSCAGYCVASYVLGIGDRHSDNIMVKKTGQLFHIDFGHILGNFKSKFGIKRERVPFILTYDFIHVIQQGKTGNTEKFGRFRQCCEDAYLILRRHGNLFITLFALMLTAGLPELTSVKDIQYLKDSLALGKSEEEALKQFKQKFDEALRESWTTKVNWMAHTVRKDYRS
T2 sequence (P27986 whole entry partner): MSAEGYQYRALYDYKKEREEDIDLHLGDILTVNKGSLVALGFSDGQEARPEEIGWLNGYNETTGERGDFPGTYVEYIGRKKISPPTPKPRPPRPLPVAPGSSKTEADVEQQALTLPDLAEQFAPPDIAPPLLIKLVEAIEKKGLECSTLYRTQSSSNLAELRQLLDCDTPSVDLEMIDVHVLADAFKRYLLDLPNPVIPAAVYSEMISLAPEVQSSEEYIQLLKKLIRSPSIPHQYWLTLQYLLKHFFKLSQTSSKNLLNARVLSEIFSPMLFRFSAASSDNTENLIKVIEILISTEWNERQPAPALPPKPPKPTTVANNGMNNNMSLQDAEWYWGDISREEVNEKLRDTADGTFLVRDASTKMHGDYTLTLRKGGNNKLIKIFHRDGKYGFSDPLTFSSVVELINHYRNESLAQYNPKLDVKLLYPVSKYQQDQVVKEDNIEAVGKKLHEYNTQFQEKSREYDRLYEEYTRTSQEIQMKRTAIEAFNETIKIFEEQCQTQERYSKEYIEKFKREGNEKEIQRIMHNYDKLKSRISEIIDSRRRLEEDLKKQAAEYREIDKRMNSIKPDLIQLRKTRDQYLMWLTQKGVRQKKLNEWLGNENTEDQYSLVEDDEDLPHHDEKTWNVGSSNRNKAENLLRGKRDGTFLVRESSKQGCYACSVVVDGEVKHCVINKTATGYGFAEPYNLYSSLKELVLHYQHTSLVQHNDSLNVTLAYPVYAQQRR
T1 sequence (P42336 whole entry): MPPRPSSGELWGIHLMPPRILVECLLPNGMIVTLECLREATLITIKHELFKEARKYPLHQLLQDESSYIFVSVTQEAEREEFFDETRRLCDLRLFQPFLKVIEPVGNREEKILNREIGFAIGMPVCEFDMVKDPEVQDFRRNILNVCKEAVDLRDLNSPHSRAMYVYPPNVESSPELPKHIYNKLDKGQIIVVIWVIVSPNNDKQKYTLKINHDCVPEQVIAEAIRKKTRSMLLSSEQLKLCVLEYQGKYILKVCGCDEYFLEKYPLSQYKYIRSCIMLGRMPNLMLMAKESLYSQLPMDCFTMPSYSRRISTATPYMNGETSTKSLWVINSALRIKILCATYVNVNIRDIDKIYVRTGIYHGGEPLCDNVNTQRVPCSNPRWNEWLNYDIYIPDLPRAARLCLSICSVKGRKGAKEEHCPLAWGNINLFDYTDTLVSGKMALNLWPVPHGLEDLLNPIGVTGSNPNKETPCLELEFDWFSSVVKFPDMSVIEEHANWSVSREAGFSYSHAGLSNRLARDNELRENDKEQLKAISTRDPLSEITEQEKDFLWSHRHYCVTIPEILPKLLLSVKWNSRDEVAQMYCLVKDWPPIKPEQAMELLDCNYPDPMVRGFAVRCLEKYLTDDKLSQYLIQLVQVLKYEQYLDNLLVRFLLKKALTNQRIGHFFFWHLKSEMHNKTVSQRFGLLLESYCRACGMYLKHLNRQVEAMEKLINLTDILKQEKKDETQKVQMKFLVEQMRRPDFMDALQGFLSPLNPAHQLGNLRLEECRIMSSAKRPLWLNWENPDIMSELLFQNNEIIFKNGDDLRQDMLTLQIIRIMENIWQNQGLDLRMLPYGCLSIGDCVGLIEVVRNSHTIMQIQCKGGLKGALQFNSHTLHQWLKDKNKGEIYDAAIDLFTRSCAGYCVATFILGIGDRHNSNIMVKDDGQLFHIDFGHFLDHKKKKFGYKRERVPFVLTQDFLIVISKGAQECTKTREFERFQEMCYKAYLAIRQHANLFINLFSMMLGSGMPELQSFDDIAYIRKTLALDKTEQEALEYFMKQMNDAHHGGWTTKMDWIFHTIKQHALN
T1 sequence (P27986 whole entry partner): as the sequence (P27986 whole entry partner) above

SMILES | IC50 (PI3Kα) [µM] | IC50 (PI3Kβ) [µM] | IC50 [1] [µM]
O=S(=O)(Nc1cc(-c2ccc3nccc(N4CCC(O)CC4)c3c2)cnc1Cl)c1ccc(F)cc1 [Example 27, N-(2-chloro-5-(4-(4-hydroxy-1-piperidinyl)-6-quinolinyl)-3-pyridinyl)-4-fluorobenzenesulfonamide] | 0.0041 | 0.0126 | 0.176
CC(c1ccccc1)N1CCN(c2ccnc3ccc(-c4cnc(Cl)c(NS(=O)(=O)c5ccc(F)cc5)c4)cc23)CC1 (stereo not drawn) [Example 29, N-(2-chloro-5-(4-(4-(1-phenylethyl)-1-piperazinyl)-6-quinolinyl)-3-pyridinyl)-4-fluorobenzenesulfonamide] | 0.0069 | 0.0449 | 0.345
CC1CN(c2ccnc3ccc(-c4cnc(Cl)c(NS(=O)(=O)c5ccc(F)cc5)c4)cc23)CC(C)O1 (stereo not drawn) [Example 30, N-(2-chloro-5-(4-(2,6-dimethyl-4-morpholinyl)-6-quinolinyl)-3-pyridinyl)-4-fluorobenzenesulfonamide] | 0.0041 | 0.0302 | 0.0228
O=S(=O)(Nc1cc(-c2ccc3nccc(N4CCOCC4)c3c2)cnc1Cl)c1ccccc1F [Example 32, N-(2-chloro-5-(4-(4-morpholinyl)-6-quinolinyl)-3-pyridinyl)-2-fluorobenzenesulfonamide] | 0.005 | 0.0248 | 0.0117
O=S(=O)(Nc1cc(-c2ccc3nccc(N4CCOCC4)c3c2)cnc1Cl)c1ccccc1Cl [Example 33, 2-chloro-N-(2-chloro-5-(4-(4-morpholinyl)-6-quinolinyl)-3-pyridinyl)benzenesulfonamide] | 0.0041 | 0.0219 | 0.0063
O=S(=O)(Nc1cc(-c2ccc3nccc(N4CCOCC4)c3c2)cnc1Cl)c1c(Cl)cccc1Cl [Example 34, 2,6-dichloro-N-(2-chloro-5-(4-(4-morpholinyl)-6-quinolinyl)-3-pyridinyl)benzenesulfonamide] | 0.0065 | 0.0359 | 0.0376
O=S(=O)(Nc1cc(-c2ccc3nccc(-c4ccccc4)c3c2)cnc1Cl)c1ccc(F)cc1 [Example 36, N-(2-chloro-5-(4-phenyl-6-quinolinyl)-3-pyridinyl)-4-fluorobenzenesulfonamide] | 0.0071 | 0.0149 | 0.0914
O=S(=O)(Nc1cc(-c2ccnc3cccnc23)cnc1Cl)c1ccc(F)cc1 [Example 42, N-(2-chloro-5-(1,5-naphthyridin-4-yl)-3-pyridinyl)-4-fluorobenzenesulfonamide] | 0.0875 | 0.62 | 1.73
Nc1nc2ccc(-c3cnc(Cl)c(NS(=O)(=O)c4ccc(F)cc4)c3)cc2[nH]c1=O [Example 43, N-(5-(2-amino-3-oxo-3,4-dihydro-6-quinoxalinyl)-2-chloro-3-pyridinyl)-4-fluorobenzenesulfonamide] | 0.0169 | 0.0648 | 5.04
COc1ccc(S(=O)(=O)Nc2cc(-c3ccc4nc(NC(C)=O)ccc4c3)cnc2Cl)cc1 [Example 45, N-(6-(6-chloro-5-(((4-methoxyphenyl)sulfonyl)amino)-3-pyridinyl)-2-quinolinyl)acetamide] | 0.0192 | 0.0597 | 0.0646
COc1ccc(S(=O)(=O)Nc2cc(-c3ccc4nc(N)ccc4c3)cnc2Cl)cc1 [Example 46, N-(5-(2-amino-6-quinolinyl)-2-chloro-3-pyridinyl)-4-methoxybenzenesulfonamide] | 0.136 | 0.18 | 0.108
COc1ccc(S(=O)(=O)Nc2cc(-c3ccc4ncccc4c3)cnc2Cl)cc1 [Example 47, N-(2-chloro-5-(6-quinolinyl)-3-pyridinyl)-4-methoxybenzenesulfonamide] | 0.0417 | 0.0249 | 0.526
COc1ccc(S(=O)(=O)Nc2cc(-c3ccc4nccc(N(C)C)c4c3)cnc2Cl)cc1 [Example 49, N-(2-chloro-5-(4-(dimethylamino)-6-quinolinyl)-3-pyridinyl)-4-methoxybenzenesulfonamide] | 0.0074 | 0.0151 | 0.273
COc1ccc(S(=O)(=O)Nc2cc(-c3ccc4nccc(N5CCC(OC)CC5)c4c3)cnc2Cl)cc1 [Example 50, N-(2-chloro-5-(4-(4-methoxy-1-piperidinyl)-6-quinolinyl)-3-pyridinyl)-4-methoxybenzenesulfonamide] | 0.003 | 0.0366 | 0.107
O=S(=O)(Nc1cc(-c2ccc3ncc(N4CCCCC4)nc3c2)cnc1Cl)c1ccc(F)cc1 [Example 54, N-(2-chloro-5-(3-(1-piperidinyl)-6-quinoxalinyl)-3-pyridinyl)-4-fluorobenzenesulfonamide] | 0.0027 | 0.0842 | 0.141
CC(=O)N1CCN(c2cnc3ccc(-c4cnc(Cl)c(NS(=O)(=O)c5ccc(F)cc5)c4)cc3n2)CC1 [Example 56, N-(5-(3-(4-acetyl-1-piperazinyl)-6-quinoxalinyl)-2-chloro-3-pyridinyl)-4-fluorobenzenesulfonamide] | 0.0057 | 0.0318 | 0.0236
O=S(=O)(Nc1cc(-c2ccc3ncc(NCCOc4ccccc4)nc3c2)cnc1Cl)c1ccc(F)cc1 [Example 57, N-(2-chloro-5-(3-((2-phenoxyethyl)amino)-6-quinoxalinyl)-3-pyridinyl)-4-fluorobenzenesulfonamide] | 0.0022 | 0.0079 | 0.0451
O=S(=O)(Nc1cc(-c2ccc3ncc(N4CCC(F)(F)CC4)nc3c2)cnc1Cl)c1ccc(F)cc1 [Example 58, N-(2-chloro-5-(3-(4,4-difluoro-1-piperidinyl)-6-quinoxalinyl)-3-pyridinyl)-4-fluorobenzenesulfonamide] | 0.0034 | 0.0824 | 0.0635
CC(C)(C)OC(=O)N1CCCC(CNc2cnc3ccc(-c4cnc(Cl)c(NS(=O)(=O)c5ccc(F)cc5)c4)cc3n2)C1 (stereo not drawn) [Example 59, tert-butyl 3-(((7-(6-chloro-5-(((4-fluorophenyl)sulfonyl)amino)-3-pyridinyl)-2-quinoxalinyl)amino)methyl)-1-piperidinecarboxylate] | 0.0031 | 0.0225 | 0.136
CC(Nc1cnc2ccc(-c3cnc(Cl)c(NS(=O)(=O)c4ccc(F)cc4)c3)cc2n1)c1ccc(F)cc1 (stereo not drawn) [Example 60, N-(2-chloro-5-(3-((1-(4-fluorophenyl)ethyl)amino)-6-quinoxalinyl)-3-pyridinyl)-4-fluorobenzenesulfonamide] | 0.0103 | 0.0436 | 0.569
COc1ccc(CNc2cnc3ccc(-c4cnc(Cl)c(NS(=O)(=O)c5ccc(F)cc5)c4)cc3n2)cc1 [Example 63, N-(2-chloro-5-(3-((4-methoxybenzyl)amino)-6-quinoxalinyl)-3-pyridinyl)-4-fluorobenzenesulfonamide] | 0.0056 | 0.0502 | 0.158
COC1CCCN(c2cnc3ccc(-c4cnc(Cl)c(NS(=O)(=O)c5ccc(F)cc5)c4)cc3n2)C1 (stereo not drawn) [Example 66] | 0.0027 | 0.03 | 0.0405
CC1CN(c2cnc3ccc(-c4cnc(Cl)c(NS(=O)(=O)c5ccc(F)cc5)c4)cc3n2)CC(C)O1 (stereo not drawn) [Example 67, N-(2-chloro-5-(3-(2,6-dimethyl-4-morpholinyl)-6-quinoxalinyl)-3-pyridinyl)-4-fluorobenzenesulfonamide] | 0.0029 | 0.0648 | 0.0203

— patent publication US8415376B2, “Inhibitors of PI3 kinase” (Amgen Inc., priority 2008, dated 2013)
